# Test results published in US20260042753A1 (Merck Patent GmbH, priority 2019, published 2026).
# Read-outs that look alike come from different tables or passages of the source.
# Key:
# [1] = biological target: c-Kit(V654A) (Homo sapiens, UniProt P10721, V654A); assay: c-Kit(V654A) assay; type: biochemical
# Method in brief: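 Radiometric filter-binding read-out: after 3% phosphoric acid stop, peptide-incorporated 33P on filtermat scintillation-counted. Enzyme: human c-Kit V654A, residues 544–end, N-terminal GST fusion.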
# [2] = biological target: mutant cKIT (560-576 and V654A) in GIST430/654 cell line (Homo sapiens (Human), UniProt P10721, DEL560-576/V654A); assay: Cellular testing of cKIT mutant inhibitors: phospho-Y307-cKIT Luminex assay in GIST430/654 cells; type: cell-based; settings: read-out: GIST 430/654 IC50
# Method in brief: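 Autophosphorylation of mutant cKIT at Y307 was quantified by a Luminex bead sandwich assay (total-cKIT capture, phosphospecific detection) after 45 min compound exposure in GIST430/654 cells, cultured in medium containing 100 nM imatinib. Signals were normalised to solvent (0.3% DMSO) controls and dose-response curves fitted for IC50.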
# [3] = Table 1, cKIT autophosphorylation, compounds 45 min
# [4] = Table 2, corresponding triazole derivatives
# Chain of mutant cKIT (560-576 and V654A) in GIST430/654 cell line (P10721 other isoform, or with tags, fused parts or gaps V654A/del 1-25/del 560-576 limits assumed): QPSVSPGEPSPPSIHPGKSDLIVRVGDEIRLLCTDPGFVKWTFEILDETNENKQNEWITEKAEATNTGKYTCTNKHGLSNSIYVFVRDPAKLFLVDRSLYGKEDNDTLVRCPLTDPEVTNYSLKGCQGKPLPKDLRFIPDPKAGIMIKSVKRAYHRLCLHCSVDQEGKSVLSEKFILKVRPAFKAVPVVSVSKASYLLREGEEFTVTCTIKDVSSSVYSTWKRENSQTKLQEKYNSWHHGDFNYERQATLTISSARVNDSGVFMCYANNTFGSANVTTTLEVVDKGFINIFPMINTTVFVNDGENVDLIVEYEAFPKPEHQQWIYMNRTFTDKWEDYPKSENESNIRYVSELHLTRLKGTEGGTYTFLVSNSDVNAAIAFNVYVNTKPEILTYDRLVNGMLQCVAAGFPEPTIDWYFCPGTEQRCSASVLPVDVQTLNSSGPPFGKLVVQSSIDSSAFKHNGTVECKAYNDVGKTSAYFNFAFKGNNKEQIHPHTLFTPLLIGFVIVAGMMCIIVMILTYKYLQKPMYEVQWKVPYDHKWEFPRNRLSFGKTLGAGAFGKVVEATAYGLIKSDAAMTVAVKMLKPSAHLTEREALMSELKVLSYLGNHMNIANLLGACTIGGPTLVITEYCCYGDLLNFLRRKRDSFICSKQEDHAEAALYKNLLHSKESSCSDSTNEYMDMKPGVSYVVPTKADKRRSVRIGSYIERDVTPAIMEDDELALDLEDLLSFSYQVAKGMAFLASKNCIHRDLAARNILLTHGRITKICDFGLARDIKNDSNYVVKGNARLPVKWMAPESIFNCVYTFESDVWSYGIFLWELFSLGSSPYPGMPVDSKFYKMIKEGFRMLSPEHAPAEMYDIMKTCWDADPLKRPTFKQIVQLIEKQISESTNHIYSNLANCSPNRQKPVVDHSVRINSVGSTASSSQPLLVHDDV
"IC50 ([1]; Table 1, 200 μM ATP)","IC50 [2, 3]","IC50 [1, 4]","IC50 [2, 4]",SMILES
2 nM,31 nM,,,"COCCOc1cc2[nH]nc(-c3cc(-c4ccc(C(=O)N5CC(N6CCOC[C@H]6C)C5)cc4)no3)c2cc1F [A201, 5-fluoro-6-(2-methoxyethoxy)-3-[3-(4-{3-[(3R)-3-methylmorpholin-4-yl]azetidine-1-carbonyl}phenyl)-1,2-oxazol-5-yl]-1H-indazole]"
1.5 nM,150 nM,,,"COCCOc1cc2[nH]nc(-c3cc(-c4ccc(OCCN5CCNCC5)cc4)no3)c2cc1F [A134, 5-fluoro-6-(2-methoxyethoxy)-3-(3-{4-[2-(piperazin-1-yl)ethoxy]phenyl}-1,2-oxazol-5-yl)-1H-indazole]"
0.51 nM,33 nM,,,"COCCOc1cc2[nH]nc(-c3cc(-c4ccc(C(=O)N5CC[C@H]5C(C)(C)O)cc4)no3)c2cc1F [A59, 2-[(2S)-1-(4-{5-[5-fluoro-6-(2-methoxyethoxy)-1H-indazol-3-yl]-1,2-oxazol-3-yl}benzoyl)azetidin-2-yl]propan-2-ol]"
15 nM,860 nM,,,"COCCOc1cc2[nH]nc(-c3cc(-c4ccc(C(=O)N5CC(F)C5)nc4)no3)c2cc1F [A98, (3-fluoro-azetidin-1-yl)-(5-{5-[5-fluoro-6-(2-methoxy-ethoxy)-1H-indazol-3-yl]-isoxazol-3-yl}-pyridin-2-yl)-methanone]"
2 nM,79 nM,,,"COCCOc1cc2[nH]nc(-c3cc(-c4ccc(C(=O)N5CC(N(C)C)C5)cc4)no3)c2cc1F [A76, 1-(4-{5-[5-fluoro-6-(2-methoxyethoxy)-1H-indazol-3-yl]-1,2-oxazol-3-yl}benzoyl)-N,N-dimethylazetidin-3-amine]"
6.3 nM,170 nM,,,"COCCOc1cc2[nH]nc(-c3cc(-c4ccc(C(=O)N=S(C)(C)=O)cc4)no3)c2cc1F [A35, N-[dimethyl(oxo)-lambda6-sulfanylidene]-4-{5-[5-fluoro-6-(2-methoxyethoxy)-1H-indazol-3-yl]-1,2-oxazol-3-yl}benzamide]"
14 nM,730 nM,,,"C[C@H]1CN(C)CCN1C(=O)c1ccc(-c2cc(-c3n[nH]c4cc(C(F)(F)F)ccc34)on2)cc1 [A50, 3-(3-{4-[(2S)-2,4-dimethylpiperazine-1-carbonyl]phenyl}-1,2-oxazol-5-yl)-6-(trifluoromethyl)-1H-indazole]"
,,2.3 nM,140 nM,COCCOc1cc2[nH]nc(-c3cn(-c4ccc(C(=O)N5Cc6ccncc6C5)cc4)nn3)c2cc1F [reference compound]
0.45 nM,14 nM,,,"COCCOc1cc2[nH]nc(-c3cc(-c4ccc(C(=O)N5CC(c6cccnc6)C5)cc4)no3)c2cc1F [A192, 5-fluoro-6-(2-methoxyethoxy)-3-(3-{4-[3-(pyridin-3-yl)azetidine-1-carbonyl]phenyl}-1,2-oxazol-5-yl)-1H-indazole]"
,,13 nM,870 nM,COCCOc1cc2[nH]nc(-c3cn(-c4ccc(C(=O)N5CC(N6CCOCC6)C5)c(C)c4)nn3)c2cc1F [reference compound]
1.1 nM,170 nM,,,"COCCOc1cc2[nH]nc(-c3cc(-c4ccc(C(=O)N5CC6(CCO6)C5)cc4)no3)c2cc1F [A79, 5-fluoro-6-(2-methoxyethoxy)-3-[3-(4-{1-oxa-6-azaspiro[3.3]heptane-6-carbonyl}phenyl)-1,2-oxazol-5-yl]-1H-indazole]"
20 nM,190 nM,,,"COCCOc1cc2[nH]nc(-c3cc(-c4ccc(C(=O)N5CC(N6CCOCC6)C5)nc4)no3)c2cc1F [A69, (5-{5-[5-fluoro-6-(2-methoxy-ethoxy)-1H-indazol-3-yl]-isoxazol-3-yl}-pyridin-2-yl)-(3-morpholin-4-yl-azetidin-1-yl)-methanone]"
0.78 nM,52 nM,,,"COCCOc1cc2[nH]nc(-c3cc(-c4ccc(C(=O)N5CC[C@@H]5C(C)(C)O)cc4)no3)c2cc1F [A58, 2-[(2R)-1-(4-{5-[5-fluoro-6-(2-methoxyethoxy)-1H-indazol-3-yl]-1,2-oxazol-3-yl}benzoyl)azetidin-2-yl]propan-2-ol]"
0.49 nM,48 nM,,,"COCCOc1cc2[nH]nc(-c3cc(-c4ccc(C(=O)N5Cc6cnn(C)c6C5)cc4)no3)c2cc1F [A213, 5-fluoro-6-(2-methoxyethoxy)-3-[3-(4-{1-methyl-1H,4H,5H,6H-pyrrolo[3,4-c]pyrazole-5-carbonyl}phenyl)-1,2-oxazol-5-yl]-1H-indazole]"
5.8 nM,240 nM,,,"COCCOc1cc2[nH]nc(-c3cc(-c4ccc(S(C)(=O)=O)cc4)no3)c2cc1Cl [A15, 5-chloro-3-[3-(4-methanesulfonylphenyl)-1,2-oxazol-5-yl]-6-(2-methoxyethoxy)-1H-indazole]"
1.1 nM,19 nM,,,"COCCOc1cc2[nH]nc(-c3cc(-c4ccc(C(=O)N5C[C@H]6COC[C@H]6C5)cc4)no3)c2cc1F [A202, 3-(3-{4-[(cis)-hexahydro-1H-furo[3,4-c]pyrrole-5-carbonyl]phenyl}-1,2-oxazol-5-yl)-5-fluoro-6-(2-methoxyethoxy)-1H-indazole]"
2.7 nM,140 nM,,,"COCCOc1cc2[nH]nc(-c3cc(-c4ccc(OCCN5CCOCC5)cc4)no3)c2cc1F [A40, 5-fluoro-6-(2-methoxyethoxy)-3-(3-{4-[2-(morpholin-4-yl)ethoxy]phenyl}-1,2-oxazol-5-yl)-1H-indazole]"
4.9 nM,340 nM,,,"COCCOc1cc2[nH]nc(-c3cc(-c4cccc(C(=O)N(C)C)c4)no3)c2cc1F [A135, 3-{5-[5-fluoro-6-(2-methoxy-ethoxy)-1H-indazol-3-yl]-isoxazol-3-yl}-N,N-dimethyl-benzamide]"
0.96 nM,140 nM,,,"COCCOc1cc2[nH]nc(-c3cc(-c4ccc(C(=O)N5CC(N6CCC(O)CC6)C5)cc4)no3)c2cc1F [A103, 1-[1-(4-{5-[5-fluoro-6-(2-methoxyethoxy)-1H-indazol-3-yl]-1,2-oxazol-3-yl}benzoyl)azetidin-3-yl]piperidin-4-ol]"
1.1 nM,30 nM,,,"COCCOc1cc2[nH]nc(-c3cc(-c4ccc(C(=O)N5CC(c6ccnc(C)n6)C5)cc4)no3)c2cc1F [A173, 5-fluoro-6-(2-methoxyethoxy)-3-(3-{4-[3-(2-methylpyrimidin-4-yl)azetidine-1-carbonyl]phenyl}-1,2-oxazol-5-yl)-1H-indazole]"
3.1 nM,340 nM,,,"COc1cc2[nH]nc(-c3cc(-c4ccc(C(=O)N5CCNCC5)cc4)no3)c2cc1F [A225, {4-[5-(5-fluoro-6-methoxy-1H-indazol-3-yl)-isoxazol-3-yl]-phenyl}-piperazin-1-yl-methanone]"
1.2 nM,62 nM,,,"COCCOc1cc2[nH]nc(-c3cc(-c4ccc(C(=O)N5CCOC[C@H]5COC)cc4)no3)c2cc1F [A111, 5-fluoro-6-(2-methoxyethoxy)-3-(3-{4-[(3R)-3-(methoxymethyl)morpholine-4-carbonyl]phenyl}-1,2-oxazol-5-yl)-1H-indazole]"
3 nM,170 nM,,,"COCCOc1cc2[nH]nc(-c3cc(-c4ccc(S(=O)(=O)N5CCOCC5)cc4)no3)c2cc1F [A227, 5-fluoro-6-(2-methoxyethoxy)-3-{3-[4-(morpholine-4-sulfonyl)phenyl]-1,2-oxazol-5-yl}-1H-indazole]"
